Counter-ions that a name gives are not always drawn. Like-named read-outs stand apart in the source and are kept apart here.
Tests used:
[1] = biological target: full-length human PRMT8 isoform 1 (Homo sapiens, UniProt Q9NR22); experiment: PRMT8 Biochemical Assay (3H-SAM Flashplate, peptide substrate); conditions: read-out: Biochemical IC50 PRMT8
Outline: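 Scintillation Flashplate capture of biotinylated histone H4 (31-45) peptide (150 nM) methylated by 1.5 nM PRMT8 using 3H-SAM (50 nM) with unlabelled SAM (550 nM); enzyme and compound preincubated 30 min, room temperature, in Bicine pH 7.6 buffer with TCEP, BSG, Tween 20 and 2% DMSO. Stopped with excess cold SAM (400 uM); IC50 from % inhibition, min control 1 mM SAH.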

[2] = tested on: mono-methyl arginine in RKO cells; experiment: RKO Methylation Assay, In Cell Western (ICW) for detection of mono-methyl arginine and DNA content; format: cell-based; conditions: for EC30: Homo sapiens, RKO, 72 h
Outline: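 RKO cells were treated with compound for 72 hours at 37 °C, methanol-fixed and stained overnight at 4 °C with anti-mono-methyl arginine (1:200), with DRAQ5 for DNA. Odyssey 800/700 nm intensity ratio was normalized to DMSO and 20 μM reference-compound controls. EC30 from triplicate nine-point curves.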

[3] = single experiment or average of multiple experiments
[4] = RKO cells, 72 hours incubation, mono-methyl arginine signal normalised to DNA content, single experiment or average of multiple experiments, read-out: In Cell Western EC30
[5] = RKO cells, 72 hours compound incubation, mono-methyl arginine signal normalised to DNA content (DRAQ5), percent activation vs 20 μM reference compound
[6] = RKO cells, 72 hours compound incubation, mono-methyl arginine signal normalised to DNA content (DRAQ5), percent activation vs 20 μM reference compound, read-out: In Cell Western EC30

Chain of full-length human PRMT8 isoform 1 (Q9NR22 whole entry, canonical isoform): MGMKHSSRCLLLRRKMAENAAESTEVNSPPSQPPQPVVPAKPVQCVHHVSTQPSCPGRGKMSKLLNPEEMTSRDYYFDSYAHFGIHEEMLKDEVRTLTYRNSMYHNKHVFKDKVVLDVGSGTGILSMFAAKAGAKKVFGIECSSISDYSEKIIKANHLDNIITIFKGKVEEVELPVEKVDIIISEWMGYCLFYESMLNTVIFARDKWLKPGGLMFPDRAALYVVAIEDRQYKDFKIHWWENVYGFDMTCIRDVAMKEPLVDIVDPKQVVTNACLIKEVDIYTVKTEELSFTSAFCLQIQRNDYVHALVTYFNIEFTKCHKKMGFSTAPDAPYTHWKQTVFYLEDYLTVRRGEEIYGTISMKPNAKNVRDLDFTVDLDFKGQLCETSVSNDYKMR

Structure (SMILES) | IC50 [1, 3] [nM] | EC30 [2, 4] [nM] | further results
COc1cccc(/C=C/c2n[nH]cc2CN(C)CCN)c1 [Compound 17] | 410 |  | 
CNCCN(C)Cc1c[nH]nc1C1CCN(C(=O)Cc2ccccc2)CC1 [Compound 32] | 770 | 2350 | In Cell Western EC30 [2, 5]: A (“A” indicates an EC30 ≤ 3.00 μM)
CNCCN(C)Cc1c[nH]nc1/C=C/c1ccc(C(F)(F)F)cc1 [Compound 6] | 240 |  | 
CNCCN(C)Cc1c[nH]nc1C1CC(C)(C)OC(C)(C)C1 [Compound 59] | 48.4 | 357 | 
CCC(CC)OC1CCC(c2n[nH]cc2CN(C)CCNC)CC1 (stereo not shown) [Compound 70] | 24.2 | 50 | EC30 [2, 6]: < 3000 nM; IC50 [1]: < 100 nM
CCOCC1CC(c2n[nH]cc2CN(C)CCNC)CC(COCC)C1(C)C (stereo not shown) [Compound 87] | 1010 | 2530 | EC30 [2, 6]: < 3000 nM; IC50 [1]: 1010 to 3000 nM
CN(CCN)Cc1c[nH]nc1/C=C/c1ccc(C(F)(F)F)cc1 [Compound 18] | 40 |  | 
CNCCN(C)Cc1c[nH]nc1C1CCC(C)(C)CC1 [Compound 52] | 10.4 | 41 | 
CNCCN(C)Cc1c[nH]nc1C1CCC(C(C)C)CC1 (stereo not shown) [Compound 50] | 11.2 | 27 | EC30 [2, 6]: < 3000 nM
CNCCN(C)Cc1c[nH]nc1C1CCN(CC(C)C)CC1 [Compound 39, N^1-((3-(1-isobutylpiperidin-4-yl)-1H-pyrazol-4-yl)methyl)-N^1,N^2-dimethylethane-1,2-diamine] | 360 | 500 | In Cell Western EC30 [2, 5]: A (“A” indicates an EC30 ≤ 3.00 μM)
CNCCN(C)Cc1c[nH]nc1/C=C/c1ccc(OC)cc1 [Compound 7] | 520 |  | 
CNCCN(C)Cc1c[nH]nc1C1CCC2(CCCCC2)OC1 (stereo not shown) [Compound 62] | 20 | 169 | EC30 [2, 6]: < 3000 nM; IC50 [1]: < 100 nM
CNCCN(C)Cc1c[nH]nc1C1CCC(COCCOC)(COCCOC)CC1 [Compound 60] | 129 | 2840 | EC30 [2, 6]: < 3000 nM
CNCCN(C)Cc1c[nH]nc1C1CCN(C(=O)C(C)C)CC1 [Compound 34] | 440 | 1150 | In Cell Western EC30 [2, 5]: A (“A” indicates an EC30 ≤ 3.00 μM)
CNCCN(C)Cc1c[nH]nc1[C@H]1CCC(C)(C)[C@@H](C(=O)NCCOC)C1 [Compound 268] | 210 |  | IC50 [1]: 101 to 1000 nM
CNCCN(C)Cc1c[nH]nc1C1CCC2(CCCO2)CC1 (stereo not shown) [Compound 51] | 21.4 | 52 | EC30 [2, 6]: < 3000 nM
CN(CCN)Cc1c[nH]nc1C1CCCCC1 [Compound 22] | 300 | 1240 | In Cell Western EC30 [2, 5]: A (“A” indicates an EC30 ≤ 3.00 μM)
CNCCN(C)Cc1c[nH]nc1/C=C/c1ccc(-c2ccccc2)cc1 [Compound 5] | 420 |  | 
CNCCN(C)Cc1c[nH]nc1C1CCNCC1 [Compound 42] | 30 | > 20000 | In Cell Western EC30 [2, 5]: C (“C” indicates an EC30 > 12.01 μM)
CNCCN(C)Cc1c[nH]nc1C1CCN(C)CC1 [Compound 41] | 350 | > 20000 | In Cell Western EC30 [2, 5]: C (“C” indicates an EC30 > 12.01 μM)
CNCCN(C)Cc1ccnn1C1CCC2(CC1)CC(C)(C)CO2 (stereo not shown) [Compound 274, trifluoroacetate] | 11.9 |  | EC30 ([2]; read-out: In Cell Western EC30, RKO cells, 72 hours compound incubation, mono-methyl arginine signal normalised to DNA content (DRAQ5), percent activation vs 20 μM reference compound): < 3000 nM; EC30 ([2]; read-out: In Cell Western EC30, RKO cells, 72 hours incubation, mono-methyl arginine signal normalised to DNA content, single experiment or average of multiple experiments): 16.8 nM; IC50 [1]: < 100 nM
CC(C)Cc1n[nH]cc1CN(C)CCN [Compound 28, N^1-((3-iso-butyl-1H-pyrazol-4-yl)methyl)-N^1-methylethane-1,2-diamine] | 1680 | 11100 | EC30 [2, 6]: 3010 to 12000 nM
CNCCN(C)Cc1c[nH]nc1C1CCC(CCOC)CC1 (stereo not shown) [Compound 55] | 24.7 | 63 | EC30 [2, 6]: < 3000 nM
CNCCN(C)Cc1c[nH]nc1C1CCC(OC(C)C)CC1 (stereo not shown) [Compound 56] | 32 | 96 | 
CN(CCN)Cc1c[nH]nc1C(C)(C)C [Compound 27] | > 10000 | > 20000 | In Cell Western EC30 [2, 5]: C (“C” indicates an EC30 > 12.01 μM); IC50 [1]: > 10000 nM
CNCCN(C)Cc1c[nH]nc1C1CCC(OCCOC)CC1 (stereo not shown) [Compound 58] | 72.1 | 978 | 
CNCCN(C)Cc1c[nH]nc1C1CCN(C(=O)CC(C)C)CC1 [Compound 40, 3-methyl-1-(4-(4-((methyl(2-(methylamino)ethyl)amino)methyl)-1H-pyrazol-3-yl)piperidin-1-yl)butan-1-one] | 7010 | 870 | EC30 [2, 6]: < 3000 nM

Structure (SMILES) | IC50 [1, 3] [nM] | EC30 [2, 4] [nM] | further results
Cc1n[nH]cc1CN(C)CCN [Compound 30] | > 10000 | > 20000 | In Cell Western EC30 [2, 5]: C (“C” indicates an EC30 > 12.01 μM)
Cc1ccc(/C=C/c2n[nH]cc2CN(C)CCN)cc1 [Compound 8] | 360 |  | 
CN(CCN)Cc1c[nH]nc1C1=CCOCC1 [Compound 10] | 1920 | > 20000 | In Cell Western EC30 [2, 5]: C (“C” indicates an EC30 > 12.01 μM)
CNCCN(C)Cc1c[nH]nc1C#Cc1ccc(F)cc1 [Compound 4] | 590 |  | 
COC/C=C/c1n[nH]cc1CN(C)CCN [Compound 19] | 2300 |  | 
CNCCN(C)Cc1c[nH]nc1C1CC(COC)C(C)(C)C(COC)C1 (stereo not shown) [Compound 86] | 3970 | 16.8 | EC30 [2, 6]: < 3000 nM; IC50 [1]: 3010 to 10000 nM
CNCCN(C)Cc1c[nH]nc1[C@@H]1CCC(C)(C)[C@@H](C(=O)NCCCOC)C1 [Compound 271, (1S,5R)—N-(3-methoxypropyl)-2,2-dimethyl-5-[4-({methyl[2-(methylamino)ethyl]amino}methyl)-1H-pyrazol-3-yl]cyclohexane-1-carboxamide] | 100 |  | IC50 [1]: < 100 nM
CN(CCN)Cc1c[nH]nc1/C=C/c1ccc(F)cc1F [Compound 13] | 300 |  | 
CNCCN(C)Cc1c[nH]nc1[C@@H]1CCC(C)(C)[C@@H](C(=O)NCCOC)C1 [Compound 269] | 155 |  | IC50 [1]: 101 to 1000 nM
CN(CCN)Cc1c[nH]nc1/C=C/c1cc(C(F)(F)F)cc(C(F)(F)F)c1 [Compound 14] | 660 |  | 
CN(CCN)Cc1n[nH]cc1C1CCC(N2CCOCC2)CC1 (stereo not shown) [Compound 44, N^1-methyl-N^1-((4-(4-morpholinocyclohexyl)-1H-pyrazol-3-yl)methyl)ethane-1,2-diamine] | 62.4 | 4570 | In Cell Western EC30 [2, 5]: B (“B” indicates an EC30 of 3.01-12.00 μM)
CN(CCN)Cc1n[nH]cc1C1CCC(C)(C)CC1 [Compound 36] | 280 | 630 | In Cell Western EC30 [2, 5]: A (“A” indicates an EC30 ≤ 3.00 μM)
CN(CCN)Cc1c[nH]nc1C1CCC(C)(C)CC1 [Compound 38, N^1-((3-(4,4-dimethylcyclohexyl)-1H-pyrazol-4-yl)methyl)-N^1-methylethane-1,2-diamine] | 260 | 130 | In Cell Western EC30 [2, 5]: A (“A” indicates an EC30 ≤ 3.00 μM)
CN(CCN)Cc1c[nH]nc1/C=C/c1cc(F)cc(F)c1 [Compound 15] | 700 |  | 
CNCCN(C)Cc1c[nH]nc1C1CCC(C)(C)C(COCC(C)C)C1 (stereo not shown) [Compound 95] | 18.9 | 122 | EC30 [2, 6]: < 3000 nM; IC50 [1]: < 100 nM
CNCCN(C)Cc1c[nH]nc1C1CCC(C)(C)C(C(=O)NCCCOC)C1 (stereo not shown) [Compound 93] | 88.1 |  | IC50 [1]: < 100 nM
CN(CCN)Cc1c[nH]nc1CCc1ccc(F)cc1 [Compound 23, N^1-((3-(4-fluorophenethyl)-1H-pyrazol-4-yl)methyl)-N^1-methylethane-1,2-diamine] | 280 | 1610 | In Cell Western EC30 [2, 5]: A (“A” indicates an EC30 ≤ 3.00 μM)
CN(CCN)Cc1c[nH]nc1C1CC1 [Compound 12] | > 10000 |  | IC50 [1]: > 10000 nM
COc1cc(/C=C/c2n[nH]cc2CN(C)CCN)cc(OC)c1 [Compound 11] | 250 |  | 
CNCCN(C)Cc1c[nH]nc1C1CCC(C)(C)[C@H](OCC2CCOCC2)C1 (stereo partly drawn) [Compound 273, ({3-[(3R)-4,4-dimethyl-3-(oxan-4-ylmethoxy)cyclohexyl]-1H-pyrazol-4-yl}methyl)(methyl)[2-(methylamino)ethyl]amine] | 22.6 |  | IC50 [1]: < 100 nM
CN(CCN)Cc1c[nH]nc1/C=C/c1cccc(F)c1 [Compound 20] | 470 |  | 
CN(CCN)Cc1c[nH]nc1/C=C/c1cccc(C(F)(F)F)c1 [Compound 16] | 690 |  | 
CNCCN(C)Cc1c[nH]nc1C1CCC(COC(C)C)(COC(C)C)CC1 [Compound 61] |  | 149 | EC30 [2, 6]: < 3000 nM
CNCCN(C)Cc1c[nH]nc1C#Cc1cccc(OC)c1 [Compound 1] | 390 |  | 
CNCCN(C)Cc1c[nH]nc1[C@H]1CCC(C)(C)[C@@H](C(=O)NCCCOC)C1 [Compound 270] | 204 |  | IC50 [1]: 101 to 1000 nM
CNCCN(C)Cc1c[nH]nc1C#Cc1ccc(C(C)(C)C)cc1 [Compound 2] | 170 |  | 
CNCCN(C)Cc1c[nH]nc1C1CCC(C)(C)[C@H](OCCCOC)C1 (stereo partly shown) [Compound 272] | 25.8 |  | IC50 [1]: < 100 nM
